This experiment deals with E. multilocularis metacestode vesicles. The experiment is described as follows: PGI assay (damage marker release) with metacestode vesicles. The experiment is classed as cell-based, Echinococcus multilocularis. Set-up: key: Active: Compounds were considered active when they reached 20% of PGI release relative to Triton X-100; Not active: Compounds were considered active when they reached 20% of PGI release relative to Triton X-100. As to conditions: overview screen at 10 µM, five days, 20% cut-off relative to Triton X-100. As to the method:
In order to screen disulfiram and dithiocarbamate derivatives as potential new drug candidates, we used an in vitro screening cascade, in which the compounds were first screened against E. multilocularis metacestode vesicles via the phosphoglucose isomerase (PGI) assay, in which metacestode vesicle damage is assessed by the measurement of damage marker (PGI) release (Figure 1, see Section 2.6). […] Subsequently, compounds were assessed in concentration series on E. multilocularis metacestode vesicles via the PGI assay and on GL cell cultures via the CellTiter-Glo assay (see Section 2.9). The testing on mammalian cells as well as metacestode vesicles and GL cell cultures allowed the identification of a potential therapeutic window in vitro.
PGI assays were conducted at the University of Bern as described previously. In short, two-to-three-month-old metacestode vesicles of two to four mm in diameter were purified using 2% sucrose followed by several washing steps in PBS. Purified metacestode vesicles were mixed with two volumes of DMEM without phenol red containing penicillin (100 U/mL) and streptomycin (100 µg/mL). […] Samples were measured on an EnSpire multilabel reader (Perkin Elmer, Waltham, MA, USA). […] Samples were measured on a HIDEX Sense microplate reader (Hidex, Turku, Finland). […]

Take `CCN(CC)C(=S)SSC(=S)N(CC)CC` [Disulfiram]: the “PGI assay (active / not active)” value is reported as “Not active”. Also, the “PGI assay (active / not active)” value (listed as disulfiram) was “showed no effect”.

The values above are taken from publication PMC10747736, “In Vitro Activities of Dithiocarbamate Derivatives against Echinococcus multilocularis Metacestode Vesicles” (Tropical Medicine and Infectious Disease, 2023).
